Laboratory results: the NIST ThermoML archive (doi:10.1016/j.jct.2006.10.008)
± gives the expanded uncertainty stated by the source.

Columns and labels:
[1] = excess molar enthalpy (molar enthalpy of mixing); xn = mol fraction of the nth substance listed; conditions: 298.15 K, 101 kPa, Liquid, Calvet calorimetry
[2] = xn = mol fraction of the nth substance listed; conditions: 298.15 K, 101 kPa, Liquid

CCCCCOC=O [pentyl methanoate] + ClCCCCl
excess molar enthalpy ([1]; x1 = 0.0477): -0.0278 ± 0.001 kJ/mol | excess molar enthalpy ([1]; x1 = 0.1093): -0.0632 ± 0.0013 kJ/mol | excess molar enthalpy ([1]; x1 = 0.1729): -0.102 ± 0.0016 kJ/mol | excess molar enthalpy ([1]; x1 = 0.2358): -0.143 ± 0.0019 kJ/mol | excess molar enthalpy ([1]; x1 = 0.2905): -0.183 ± 0.0022 kJ/mol | excess molar enthalpy ([1]; x1 = 0.3427): -0.221 ± 0.0025 kJ/mol | excess molar enthalpy ([1]; x1 = 0.3933): -0.253 ± 0.0027 kJ/mol | excess molar enthalpy ([1]; x1 = 0.4564): -0.276 ± 0.0029 kJ/mol | excess molar enthalpy ([1]; x1 = 0.5122): -0.284 ± 0.003 kJ/mol | excess molar enthalpy ([1]; x1 = 0.5719): -0.285 ± 0.003 kJ/mol | excess molar enthalpy ([1]; x1 = 0.6452): -0.274 ± 0.0029 kJ/mol | excess molar enthalpy ([1]; x1 = 0.7254): -0.245 ± 0.0027 kJ/mol | excess molar enthalpy ([1]; x1 = 0.8109): -0.188 ± 0.0023 kJ/mol | excess molar enthalpy ([1]; x1 = 0.9161): -0.102 ± 0.0016 kJ/mol | mass density ([2]; x1 = 0.0471): 1159.68 ± 0.64 kg/m3 | mass density ([2]; x1 = 0.0911): 1142.71 ± 0.61 kg/m3 | mass density ([2]; x1 = 0.1377): 1125.33 ± 0.57 kg/m3 | mass density ([2]; x1 = 0.1848): 1108.29 ± 0.54 kg/m3 | mass density ([2]; x1 = 0.2341): 1091.1 ± 0.5 kg/m3 | mass density ([2]; x1 = 0.3403): 1056.06 ± 0.43 kg/m3 | mass density ([2]; x1 = 0.4528): 1021.65 ± 0.37 kg/m3 | mass density ([2]; x1 = 0.5122): 1004.48 ± 0.33 kg/m3 | mass density ([2]; x1 = 0.5737): 987.37 ± 0.34 kg/m3 | mass density ([2]; x1 = 0.6379): 970.23 ± 0.36 kg/m3 | mass density ([2]; x1 = 0.7034): 953.41 ± 0.38 kg/m3 | mass density ([2]; x1 = 0.7721): 936.49 ± 0.4 kg/m3 | mass density ([2]; x1 = 0.8438): 919.53 ± 0.42 kg/m3 | mass density ([2]; x1 = 0.9188): 902.44 ± 0.44 kg/m3

ClCCCCCCl [1,5-dichloropentane] + CCOC=O
excess molar enthalpy ([1]; x2 = 0.1024): 0.141 ± 0.0019 kJ/mol | excess molar enthalpy ([1]; x2 = 0.2043): 0.224 ± 0.0025 kJ/mol | excess molar enthalpy ([1]; x2 = 0.2974): 0.295 ± 0.0031 kJ/mol | excess molar enthalpy ([1]; x2 = 0.3848): 0.335 ± 0.0034 kJ/mol | excess molar enthalpy ([1]; x2 = 0.4598): 0.345 ± 0.0035 kJ/mol | excess molar enthalpy ([1]; x2 = 0.5273): 0.339 ± 0.0034 kJ/mol | excess molar enthalpy ([1]; x2 = 0.5845): 0.321 ± 0.0033 kJ/mol | excess molar enthalpy ([1]; x2 = 0.6305): 0.297 ± 0.0031 kJ/mol | excess molar enthalpy ([1]; x2 = 0.6809): 0.26 ± 0.0028 kJ/mol | excess molar enthalpy ([1]; x2 = 0.7286): 0.231 ± 0.0026 kJ/mol | excess molar enthalpy ([1]; x2 = 0.7798): 0.19 ± 0.0023 kJ/mol | excess molar enthalpy ([1]; x2 = 0.8289): 0.149 ± 0.002 kJ/mol | excess molar enthalpy ([1]; x2 = 0.8791): 0.109 ± 0.0017 kJ/mol | excess molar enthalpy ([1]; x2 = 0.9215): 0.0696 ± 0.0014 kJ/mol | excess molar enthalpy ([1]; x2 = 0.9634): 0.0314 ± 0.0011 kJ/mol | mass density ([2]; x2 = 0.0955): 1084.27 ± 0.49 kg/m3 | mass density ([2]; x2 = 0.1752): 1074.48 ± 0.47 kg/m3 | mass density ([2]; x2 = 0.2534): 1064.51 ± 0.45 kg/m3 | mass density ([2]; x2 = 0.3284): 1054.28 ± 0.43 kg/m3 | mass density ([2]; x2 = 0.3985): 1044.1 ± 0.41 kg/m3 | mass density ([2]; x2 = 0.4628): 1034.31 ± 0.39 kg/m3 | mass density ([2]; x2 = 0.5327): 1023.03 ± 0.37 kg/m3 | mass density ([2]; x2 = 0.5897): 1013.34 ± 0.35 kg/m3 | mass density ([2]; x2 = 0.6456): 1003.36 ± 0.33 kg/m3 | mass density ([2]; x2 = 0.698): 993.61 ± 0.33 kg/m3 | mass density ([2]; x2 = 0.7473): 983.9 ± 0.34 kg/m3 | mass density ([2]; x2 = 0.7941): 974.37 ± 0.35 kg/m3 | mass density ([2]; x2 = 0.8401): 964.52 ± 0.36 kg/m3 | mass density ([2]; x2 = 0.8829): 954.89 ± 0.38 kg/m3 | mass density ([2]; x2 = 0.9235): 945.49 ± 0.39 kg/m3 | mass density ([2]; x2 = 0.9625): 936.01 ± 0.4 kg/m3

CCCCCOC=O [pentyl methanoate] + ClCCCCCl
excess molar enthalpy ([1]; x1 = 0.0558): -0.0154 ± 0.0009 kJ/mol | excess molar enthalpy ([1]; x1 = 0.1297): -0.0426 ± 0.0011 kJ/mol | excess molar enthalpy ([1]; x1 = 0.2099): -0.0757 ± 0.0014 kJ/mol | excess molar enthalpy ([1]; x1 = 0.2822): -0.115 ± 0.0017 kJ/mol | excess molar enthalpy ([1]; x1 = 0.3497): -0.156 ± 0.002 kJ/mol | excess molar enthalpy ([1]; x1 = 0.4176): -0.185 ± 0.0022 kJ/mol | excess molar enthalpy ([1]; x1 = 0.4615): -0.206 ± 0.0024 kJ/mol | excess molar enthalpy ([1]; x1 = 0.4847): -0.21 ± 0.0024 kJ/mol | excess molar enthalpy ([1]; x1 = 0.5352): -0.219 ± 0.0025 kJ/mol | excess molar enthalpy ([1]; x1 = 0.5989): -0.214 ± 0.0024 kJ/mol | excess molar enthalpy ([1]; x1 = 0.6703): -0.208 ± 0.0024 kJ/mol | excess molar enthalpy ([1]; x1 = 0.7496): -0.182 ± 0.0022 kJ/mol | excess molar enthalpy ([1]; x1 = 0.8354): -0.134 ± 0.0018 kJ/mol | excess molar enthalpy ([1]; x1 = 0.9293): -0.07 ± 0.0013 kJ/mol | mass density ([2]; x1 = 0.0535): 1118.26 ± 0.56 kg/m3 | mass density ([2]; x1 = 0.1055): 1103.42 ± 0.53 kg/m3 | mass density ([2]; x1 = 0.1566): 1089.12 ± 0.5 kg/m3 | mass density ([2]; x1 = 0.2106): 1074.27 ± 0.47 kg/m3 | mass density ([2]; x1 = 0.2635): 1060 ± 0.44 kg/m3 | mass density ([2]; x1 = 0.3199): 1045.06 ± 0.41 kg/m3 | mass density ([2]; x1 = 0.3768): 1030.28 ± 0.38 kg/m3 | mass density ([2]; x1 = 0.4344): 1015.59 ± 0.35 kg/m3 | mass density ([2]; x1 = 0.4908): 1001.46 ± 0.33 kg/m3 | mass density ([2]; x1 = 0.5505): 986.81 ± 0.34 kg/m3 | mass density ([2]; x1 = 0.6109): 972.26 ± 0.36 kg/m3 | mass density ([2]; x1 = 0.6726): 957.67 ± 0.37 kg/m3 | mass density ([2]; x1 = 0.7351): 943.19 ± 0.39 kg/m3 | mass density ([2]; x1 = 0.7986): 928.74 ± 0.41 kg/m3 | mass density ([2]; x1 = 0.8646): 914.02 ± 0.42 kg/m3 | mass density ([2]; x1 = 0.9292): 899.89 ± 0.44 kg/m3

ClCCCCCCCl [1,6-dichlorohexane] + CCOC=O
excess molar enthalpy ([1]; x2 = 0.102): 0.171 ± 0.0022 kJ/mol | excess molar enthalpy ([1]; x2 = 0.205): 0.298 ± 0.0031 kJ/mol | excess molar enthalpy ([1]; x2 = 0.2968): 0.3913 ± 0.0038 kJ/mol | excess molar enthalpy ([1]; x2 = 0.3852): 0.4411 ± 0.0042 kJ/mol | excess molar enthalpy ([1]; x2 = 0.4641): 0.4605 ± 0.0043 kJ/mol | excess molar enthalpy ([1]; x2 = 0.5316): 0.4655 ± 0.0044 kJ/mol | excess molar enthalpy ([1]; x2 = 0.5845): 0.4581 ± 0.0043 kJ/mol | excess molar enthalpy ([1]; x2 = 0.6442): 0.4361 ± 0.0042 kJ/mol | excess molar enthalpy ([1]; x2 = 0.6907): 0.406 ± 0.0039 kJ/mol | excess molar enthalpy ([1]; x2 = 0.7399): 0.3651 ± 0.0036 kJ/mol | excess molar enthalpy ([1]; x2 = 0.7869): 0.306 ± 0.0032 kJ/mol | excess molar enthalpy ([1]; x2 = 0.8348): 0.25 ± 0.0028 kJ/mol | excess molar enthalpy ([1]; x2 = 0.8829): 0.175 ± 0.0022 kJ/mol | excess molar enthalpy ([1]; x2 = 0.9248): 0.119 ± 0.0018 kJ/mol | excess molar enthalpy ([1]; x2 = 0.9656): 0.0618 ± 0.0014 kJ/mol | mass density ([2]; x2 = 0.0997): 1055.27 ± 0.43 kg/m3 | mass density ([2]; x2 = 0.196): 1046.53 ± 0.41 kg/m3 | mass density ([2]; x2 = 0.28): 1038.19 ± 0.4 kg/m3 | mass density ([2]; x2 = 0.3577): 1029.9 ± 0.38 kg/m3 | mass density ([2]; x2 = 0.4304): 1021.49 ± 0.36 kg/m3 | mass density ([2]; x2 = 0.4965): 1013.36 ± 0.35 kg/m3 | mass density ([2]; x2 = 0.558): 1005.21 ± 0.33 kg/m3 | mass density ([2]; x2 = 0.6159): 997.06 ± 0.33 kg/m3 | mass density ([2]; x2 = 0.67): 988.91 ± 0.34 kg/m3 | mass density ([2]; x2 = 0.7203): 980.91 ± 0.35 kg/m3 | mass density ([2]; x2 = 0.7675): 973 ± 0.35 kg/m3 | mass density ([2]; x2 = 0.8114): 965.17 ± 0.36 kg/m3 | mass density ([2]; x2 = 0.8538): 957.24 ± 0.37 kg/m3 | mass density ([2]; x2 = 0.893): 949.58 ± 0.38 kg/m3 | mass density ([2]; x2 = 0.9301): 941.93 ± 0.39 kg/m3 | mass density ([2]; x2 = 0.9649): 934.51 ± 0.4 kg/m3
